“And” between values parts separate entries of the source, which are not always exact repeats. Equal values may be shown once. “Also recorded” adds a separate entry of the source. Read-outs that look alike come from different tables or passages of the source.
Tests used:
PI3Kα = PI3Kα (Homo sapiens, UniProt P42336); assay: PI3K kinase activity, α isoform; settings: for inhibition at 0.02 µM: read-out: IH (%) @ 20 nM, α
Procedure: (§6) Concentration setting for preliminary screening: the compounds to be tested were dissolved in DMSO (dimethyl sulfoxide) to 100 μM or 10 μM as storage solutions; for each one, 2 μL was taken to be added to 48 μL of 1× Reaction Buffer to obtain a 4 μM or 400 nM compound solution containing 4% DMSO. After well mixing, the mixture was diluted with 4% DMSO in 1× Reaction Buffer to obtain a 4 μM or 400 nM compound solution. 5 μL of each diluted solution was taken to be added to a 384-well plate, so that the final concentration of the compound in the final 20 μL of the kinase reaction system was 1 μM and 100 nM or 100 nM and 20 nM, respectively, and containing 1% DMSO.
(§7) The compounds to be tested were dissolved in DMSO to 1 mM or 10 mM as working solutions, 1 μL of each working solution was taken to be added to 24 μl of 1× Kinase Buffer A to obtain a 40 μM or 400 μM compound solution containing 4% DMSO. The compound solution was diluted by 4× gradient in sequence, 10 dilution concentrations.
(§8) Calculation of the Inhibition Rate • The inhibitory rate was calculated by the following formula: Inhibitory rate=(ERsample−ER0%)/(ER100%−ER0%)×100%

PI3Kβ = PI3Kβ (Homo sapiens, UniProt P42338); assay: PI3K kinase activity, β isoform; settings: for inhibition at 0.1 µM: read-out: IH (%) @ 100 nM, β;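 as to all read-outs here: kinase reaction containing 1% DMSO, read as an emission ratio, with inhibition scaled between the 0% and 100% control ratios. IC50 values come from a ten-point fourfold dilution series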
Sequence of PI3Kβ (P42338 whole entry, canonical isoform): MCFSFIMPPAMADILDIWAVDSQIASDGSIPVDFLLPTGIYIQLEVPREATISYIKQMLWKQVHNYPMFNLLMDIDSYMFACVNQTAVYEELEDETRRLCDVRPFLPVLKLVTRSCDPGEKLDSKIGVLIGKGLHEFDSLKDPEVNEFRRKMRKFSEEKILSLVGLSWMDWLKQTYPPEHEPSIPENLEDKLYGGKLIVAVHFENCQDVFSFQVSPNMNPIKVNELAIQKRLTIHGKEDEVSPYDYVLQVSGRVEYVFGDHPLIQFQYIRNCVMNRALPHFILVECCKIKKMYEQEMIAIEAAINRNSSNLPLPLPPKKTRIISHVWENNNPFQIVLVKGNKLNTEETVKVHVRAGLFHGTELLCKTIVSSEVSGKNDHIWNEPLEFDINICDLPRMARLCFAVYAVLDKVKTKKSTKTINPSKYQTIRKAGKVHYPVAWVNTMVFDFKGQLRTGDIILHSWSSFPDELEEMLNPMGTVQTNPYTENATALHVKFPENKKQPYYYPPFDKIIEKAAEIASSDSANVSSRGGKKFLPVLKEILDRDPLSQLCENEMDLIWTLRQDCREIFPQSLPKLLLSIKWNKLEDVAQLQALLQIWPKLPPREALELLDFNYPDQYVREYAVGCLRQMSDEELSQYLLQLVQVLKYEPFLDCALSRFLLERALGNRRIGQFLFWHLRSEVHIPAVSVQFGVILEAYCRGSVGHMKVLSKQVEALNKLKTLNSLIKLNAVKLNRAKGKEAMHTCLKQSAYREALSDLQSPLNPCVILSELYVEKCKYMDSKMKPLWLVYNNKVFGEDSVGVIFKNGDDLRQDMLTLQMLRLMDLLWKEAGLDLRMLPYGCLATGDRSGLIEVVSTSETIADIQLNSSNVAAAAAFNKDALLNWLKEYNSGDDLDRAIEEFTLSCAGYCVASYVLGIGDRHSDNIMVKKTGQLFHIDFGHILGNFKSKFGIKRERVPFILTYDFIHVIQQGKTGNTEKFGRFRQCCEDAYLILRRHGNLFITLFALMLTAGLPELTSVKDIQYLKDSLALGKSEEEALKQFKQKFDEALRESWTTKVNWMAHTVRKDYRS
Sequence of PI3Kβ (P27986 whole entry partner, canonical isoform): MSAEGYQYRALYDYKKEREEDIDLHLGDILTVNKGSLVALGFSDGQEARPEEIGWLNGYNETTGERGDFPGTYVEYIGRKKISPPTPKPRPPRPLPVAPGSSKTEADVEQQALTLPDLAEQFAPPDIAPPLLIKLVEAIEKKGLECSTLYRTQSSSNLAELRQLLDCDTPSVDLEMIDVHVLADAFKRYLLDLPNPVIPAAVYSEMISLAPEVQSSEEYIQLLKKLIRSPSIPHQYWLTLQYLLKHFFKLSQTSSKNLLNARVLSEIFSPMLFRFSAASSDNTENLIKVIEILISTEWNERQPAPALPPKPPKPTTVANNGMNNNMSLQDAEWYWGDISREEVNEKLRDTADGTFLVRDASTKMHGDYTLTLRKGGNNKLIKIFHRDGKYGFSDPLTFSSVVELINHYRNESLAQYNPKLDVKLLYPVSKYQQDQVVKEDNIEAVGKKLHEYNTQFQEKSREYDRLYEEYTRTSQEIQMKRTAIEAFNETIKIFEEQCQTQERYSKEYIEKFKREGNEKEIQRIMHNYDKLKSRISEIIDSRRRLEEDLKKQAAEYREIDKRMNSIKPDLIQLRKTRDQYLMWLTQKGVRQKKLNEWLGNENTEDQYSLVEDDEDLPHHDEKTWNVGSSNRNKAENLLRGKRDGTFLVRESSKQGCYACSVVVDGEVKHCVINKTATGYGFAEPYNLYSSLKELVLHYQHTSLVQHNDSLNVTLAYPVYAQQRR
Procedure: as §6, §7, §8

PI3Kγ = PI3Kγ (Homo sapiens, UniProt P48736); assay: PI3K kinase activity, γ isoform; type: biochemical; settings: for inhibition at 0.1 µM: compound 100 nM, read-out: IH (%) @ 100 nM, γ;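 as to all read-outs here: kinase reaction run in 384-well plates, with inhibition normalised between the 0% and 100% reference reactions. IC50 derived from a ten-point, fourfold serial dilution series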
Sequence of PI3Kγ (P48736 whole entry, canonical isoform): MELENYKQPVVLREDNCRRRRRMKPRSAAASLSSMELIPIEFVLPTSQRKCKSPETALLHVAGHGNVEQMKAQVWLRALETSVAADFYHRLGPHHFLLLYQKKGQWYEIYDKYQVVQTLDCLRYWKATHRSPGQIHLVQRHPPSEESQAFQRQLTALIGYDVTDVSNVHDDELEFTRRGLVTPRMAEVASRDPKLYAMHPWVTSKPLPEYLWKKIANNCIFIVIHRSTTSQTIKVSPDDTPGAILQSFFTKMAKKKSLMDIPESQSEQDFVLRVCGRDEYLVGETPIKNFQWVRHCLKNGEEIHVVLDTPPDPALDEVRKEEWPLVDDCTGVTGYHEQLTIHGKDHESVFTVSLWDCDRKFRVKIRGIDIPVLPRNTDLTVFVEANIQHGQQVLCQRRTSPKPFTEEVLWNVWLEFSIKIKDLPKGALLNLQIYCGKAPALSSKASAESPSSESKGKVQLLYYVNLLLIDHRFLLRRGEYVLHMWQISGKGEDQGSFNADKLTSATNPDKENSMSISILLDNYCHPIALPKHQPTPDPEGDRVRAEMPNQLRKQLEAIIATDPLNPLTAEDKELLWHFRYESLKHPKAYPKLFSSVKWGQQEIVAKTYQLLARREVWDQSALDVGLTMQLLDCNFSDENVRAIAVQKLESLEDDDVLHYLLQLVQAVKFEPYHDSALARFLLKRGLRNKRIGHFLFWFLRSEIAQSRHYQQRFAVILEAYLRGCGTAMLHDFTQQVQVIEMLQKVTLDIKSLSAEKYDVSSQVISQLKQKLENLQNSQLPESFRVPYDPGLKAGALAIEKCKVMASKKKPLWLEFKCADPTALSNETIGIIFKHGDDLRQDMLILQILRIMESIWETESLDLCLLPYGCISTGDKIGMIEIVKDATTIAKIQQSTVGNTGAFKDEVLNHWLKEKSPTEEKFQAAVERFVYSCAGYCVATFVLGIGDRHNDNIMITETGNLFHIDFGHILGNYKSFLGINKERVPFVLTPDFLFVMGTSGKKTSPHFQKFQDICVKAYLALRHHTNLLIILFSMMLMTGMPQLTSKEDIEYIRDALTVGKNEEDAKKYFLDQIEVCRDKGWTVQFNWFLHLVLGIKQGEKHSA
Procedure: as §6, §7, §8

PI3Kδ = PI3Kδ (Homo sapiens, UniProt O00329); assay: PI3K kinase activity, δ isoform; settings: for inhibition at 0.02 µM: read-out: IH (%) @ 20 nM, δ; for selectivity for PI3Kδ (in words): versus other PI3K isoforms, from Tables 1 and 2
Sequence of PI3Kδ (O00329 whole entry, canonical isoform): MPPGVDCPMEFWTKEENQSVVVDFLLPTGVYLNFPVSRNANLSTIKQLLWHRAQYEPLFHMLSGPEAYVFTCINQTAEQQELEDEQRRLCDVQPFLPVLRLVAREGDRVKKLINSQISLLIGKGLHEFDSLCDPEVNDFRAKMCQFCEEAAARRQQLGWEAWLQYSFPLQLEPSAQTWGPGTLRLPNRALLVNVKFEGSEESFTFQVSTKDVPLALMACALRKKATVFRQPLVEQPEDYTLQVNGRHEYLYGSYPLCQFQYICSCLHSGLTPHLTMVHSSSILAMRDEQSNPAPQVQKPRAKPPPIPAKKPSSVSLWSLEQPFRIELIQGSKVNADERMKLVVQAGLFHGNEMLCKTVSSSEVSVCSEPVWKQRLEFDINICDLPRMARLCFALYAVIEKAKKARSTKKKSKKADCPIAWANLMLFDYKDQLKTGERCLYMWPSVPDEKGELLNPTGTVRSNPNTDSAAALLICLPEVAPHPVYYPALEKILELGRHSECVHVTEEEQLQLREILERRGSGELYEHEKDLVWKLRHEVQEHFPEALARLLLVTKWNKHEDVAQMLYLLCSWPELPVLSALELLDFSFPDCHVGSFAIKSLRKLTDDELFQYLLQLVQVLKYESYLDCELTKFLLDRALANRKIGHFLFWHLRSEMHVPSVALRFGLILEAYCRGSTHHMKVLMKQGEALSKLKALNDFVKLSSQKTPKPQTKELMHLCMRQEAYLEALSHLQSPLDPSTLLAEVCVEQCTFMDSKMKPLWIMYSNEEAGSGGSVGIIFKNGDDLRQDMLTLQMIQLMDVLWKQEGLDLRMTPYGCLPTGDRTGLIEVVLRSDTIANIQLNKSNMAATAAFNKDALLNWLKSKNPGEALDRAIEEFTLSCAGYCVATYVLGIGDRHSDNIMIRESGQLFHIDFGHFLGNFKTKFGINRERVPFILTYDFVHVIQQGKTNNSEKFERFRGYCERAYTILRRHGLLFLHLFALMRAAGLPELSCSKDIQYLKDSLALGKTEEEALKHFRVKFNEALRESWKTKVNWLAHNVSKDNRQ
Sequence of PI3Kδ (P27986 whole entry partner, canonical isoform): as the sequence (P27986 whole entry partner, canonical isoform) above
Procedure: as §6, §7, §8

[1] = Preliminary pharmacokinetic test, intravenous injection; type: in vivo, SD rats; settings: rats, intravenous injection 5 mg/kg, tested as monomesylate
Procedure: (§1) 1. 14 healthy SD rats, male, weigh 200-220 g, were taken to be randomly divided into 4 groups, 3-4 in each group, and were administered the tested compound P-17 and compound CYH33 (compared with compound P-17, missing a methyl group on 7-position) via intragastric administration (10 mg/kg) and intravenous injection (5 mg/kg) respectively, the specific arrangements are shown in the following table 3:
(§2) The rats were fasted for 12 h before experiment, water was taken freely. The rats were fed 2 h after dosing.
Dosing via intravenous: 5 min, 0.25 h, 0.5 h, 1.0 h, 2.0 h, 4.0 h, 6.0 h, 8.0 h, and 24 h after dosing.
(§3) At the above setting time points, 0.3 ml of venous blood was taken from the retroorbital venous plexus of the rat, and placed in a heparinized test tube, centrifuged at 11,000 rpm for 5 min, then the plasma was separated, and frozen in a refrigerator at −20° C.
(§4) LC/MS/MS method was used to determine the concentration of the compounds in the plasma of rats.
(§5) The non-compartment model of Phoenix 1.3 software (Pharsight Corporation, USA) was used to calculate the pharmacokinetic parameters after dosing.

[2] = Preliminary pharmacokinetic test, intragastric administration; type: in vivo, SD rats; settings: rats, 10 mg/kg versus 5 mg/kg intravenous; monomesylate
Procedure: as §1, §2
Dosing via intragastric administration: 0.25 h, 0.5 h, 1.0 h, 2.0 h, 3.0 h, 4.0 h, 6.0 h, 8.0 h, and 24 h after dosing.
as §3, §4, §5

[3] = male, SD, rat, plasma, iv, 5 mg/kg, individual animal

Sequence of PI3Kα (P42336 whole entry, canonical isoform): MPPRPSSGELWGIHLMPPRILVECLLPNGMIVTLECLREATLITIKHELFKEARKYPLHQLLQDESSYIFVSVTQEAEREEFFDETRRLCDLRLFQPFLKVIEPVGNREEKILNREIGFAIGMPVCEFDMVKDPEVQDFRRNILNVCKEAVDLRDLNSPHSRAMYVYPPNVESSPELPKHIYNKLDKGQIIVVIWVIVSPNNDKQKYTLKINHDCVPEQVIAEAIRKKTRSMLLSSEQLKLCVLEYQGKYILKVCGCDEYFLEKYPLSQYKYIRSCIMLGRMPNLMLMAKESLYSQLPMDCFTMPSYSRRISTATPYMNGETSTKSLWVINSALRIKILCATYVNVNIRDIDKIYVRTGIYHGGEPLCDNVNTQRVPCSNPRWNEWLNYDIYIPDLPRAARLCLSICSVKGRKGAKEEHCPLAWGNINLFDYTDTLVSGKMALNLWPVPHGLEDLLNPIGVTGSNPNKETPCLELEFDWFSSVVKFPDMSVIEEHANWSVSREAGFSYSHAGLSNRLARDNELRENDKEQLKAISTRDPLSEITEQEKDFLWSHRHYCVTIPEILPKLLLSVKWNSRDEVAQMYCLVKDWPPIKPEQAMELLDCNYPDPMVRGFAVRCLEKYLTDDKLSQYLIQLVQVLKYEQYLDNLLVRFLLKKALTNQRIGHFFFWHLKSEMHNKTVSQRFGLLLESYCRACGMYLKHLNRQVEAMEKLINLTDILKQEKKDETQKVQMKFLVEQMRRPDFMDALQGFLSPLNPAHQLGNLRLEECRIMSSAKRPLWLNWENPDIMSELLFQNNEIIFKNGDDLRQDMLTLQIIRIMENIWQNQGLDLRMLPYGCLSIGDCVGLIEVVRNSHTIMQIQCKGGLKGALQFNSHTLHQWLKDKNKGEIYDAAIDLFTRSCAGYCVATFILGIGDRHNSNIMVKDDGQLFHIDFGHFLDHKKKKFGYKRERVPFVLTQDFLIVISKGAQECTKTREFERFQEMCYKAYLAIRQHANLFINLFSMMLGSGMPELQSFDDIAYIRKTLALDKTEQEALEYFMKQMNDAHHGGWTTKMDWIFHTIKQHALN
Sequence of PI3Kα (P27986 whole entry partner, canonical isoform): as the sequence (P27986 whole entry partner, canonical isoform) above

Row | IC50 (PI3Kα) [nM] | inhibition at 0.02 µM (PI3Kα) [%] | IC50 (PI3Kβ) [nM] | inhibition at 0.1 µM (PI3Kβ) [%] | IC50 (PI3Kγ) [nM] | inhibition at 0.1 µM (PI3Kγ) [%] | IC50 (PI3Kδ) [nM] | inhibition at 0.02 µM (PI3Kδ) [%] | Compound | further results
1 | 21.3 | 72.8 | 1440 | 15.8 | 248 | 19.4 | 28.1 | 50.3 | CS(=O)(=O)N1CCN(Cc2cc3c(N4CCOCC4)nc(-c4cnc(N)cc4C(F)(F)F)nn3c2Cl)CC1 [Compound P-11] | –
2 | – | – | – | – | – | – | – | – | COC(=O)Nc1cc(C(F)(F)F)c(-c2nc(N3CCOCC3)c3cc(CN4CCN(S(C)(=O)=O)CC4)cn3n2)cn1 [CYH33, reference compound] | AUC(0-t) ([1]; male, SD, rat, plasma, iv, 5 mg/kg, Mean): 3540 ng·h/mL; MRT ([1]; male, SD, rat, plasma, iv, 5 mg/kg, Mean, read-out: MRT): 1.31 h; AUC(0-inf) [1, 3]: 2850 ng·h/mL; AUC(0-t) [1, 3]: 2850 ng·h/mL; clearance [1, 3]: 29.2 mL/min/kg; half-life [1, 3]: 0.83 h; MRT ([1]; male, SD, rat, plasma, iv, 5 mg/kg, individual animal, read-out: MRT): 1.1 h; Vd ([1]; male, SD, rat, plasma, iv, 5 mg/kg, individual animal, read-out: Vss): 1.93 L/kg; AUC 0 − ∞ ([1]; Mean): 3559 ng·h/mL; Cl ([1]; Mean): 24 mL/min/kg; T1/2 ([1]; Mean): 0.982 h; Vss ([1]; Mean): 1.843 L/kg; AUC 0 − t ([1]; individual animal, 5 mg/kg): 3645 ng·h/mL and 4142 ng·h/mL; AUC 0 − ∞ ([1]; individual animal, 5 mg/kg): 3655 ng·h/mL and 4172 ng·h/mL; Cl ([1]; individual animal, 5 mg/kg): 22.8 mL/min/kg and 20 mL/min/kg; MRT ([1]; individual animal, 5 mg/kg): 1.26 h and 1.57 h; T1/2 ([1]; individual animal, 5 mg/kg): 0.95 h and 1.16 h; Vss ([1]; individual animal, 5 mg/kg): 1.72 L/kg and 1.88 L/kg; F (absolute bioavailability) [2]: 36.9%
3 | 21.8 | 89.3 | 139 | 46.3 | 37.5 | 74.1 | 6.22 | 107 | CCNC(=O)Nc1cc(C(F)(F)F)c(-c2nc(N3CCOCC3)c3cc(CN4CCN(S(C)(=O)=O)CC4)c(C)n3n2)cn1 [Compound P-21] | –
4 | 18.7 | 77.9 | 109 | 32.6 | 47.1 | 67 | 10.1 | 77.1 | Cc1c(CN2CCN(S(C)(=O)=O)CC2)cc2c(N3CCOCC3)nc(-c3cnc(NC(=O)Nc4ccc(F)cc4)cc3C(F)(F)F)nn12 [Compound P-23] | –
5 | 439 | 3.6 | 3460 | 3.43 | 15300 | -7.96 | 27.6 | 53.6 | Cc1c(CN2CCC(N(C)C)CC2)cc2c(N3CCOCC3)nc(-c3cnc(N)cc3C(F)(F)F)nn12 [Compound P-7] | selectivity for PI3Kδ (in words) (PI3Kδ): selective inhibitory effect on PI3Kδ; also recorded: good selectivities for PI3Kδ
6 | – | 6.72 | – | -0.12 | – | 2.94 | – | 39.8 | COCCCNCc1cc2c(N3CCOCC3)nc(-c3cnc(N)cc3C(F)(F)F)nn2c1C [Compound P-3] | –
7 | 104 | 80.5 | 1770 | 7.84 | 202 | 32.1 | 79.7 | 39.7 | Cc1c(CN2CCN(S(C)(=O)=O)CC2)cc2c(N3CCOC[C@@H]3C)nc(-c3cnc(N)cc3C(F)(F)F)nn12 [Compound P-10] | –
8 | 26.4 | 68.9 | 1190 | 12.8 | 283 | 31.4 | 23.7 | 51.2 | Cc1c(CN2CCN(S(C)(=O)=O)CC2)cc2c(N3CCOCC3)nc(-c3cnc(N)cc3C(F)(F)F)nn12 [Compound P-9] | –
9 | 624 | 69.7 | 4570 | 11.8 | 9870 | -4.8 | 35.3 | 41.4 | CCN1CCN(Cc2cc3c(N4CCOCC4)nc(-c4cnc(N)cc4C(F)(F)F)nn3c2C)CC1 [Compound P-6] | selectivity for PI3Kδ (in words) (PI3Kδ): selective inhibitory effect on PI3Kδ; also recorded: good selectivities for PI3Kδ

Reference: US11214572B2, “7-site substituted pyrrole triazine compounds or pharmaceutically acceptable salts thereof, and preparation method thereof and uses thereof” (SHANGHAI INSTITUTE OF MATERIA MEDICA, CHINESE ACADEMY OF …, priority 2017, dated 2022)
